Measurements reported in patent US8324241B2, “Triazolo compounds useful as DGAT1 inhibitors” (Bristol-Myers Squibb Company, priority 2008, dated 2012).

Each compound was assayed against T1, recombinant human DGAT1 (Homo sapiens, UniProt O75907) (assay: DGAT1 enzyme assay (SPA, membranes from Sf9 insect cells)). Details: 300 ng recombinant human DGAT1 membrane (Sf9), 25 μM 2-monooleoylglycerol, 25 μM [3H]-stearoyl-CoA, pH 7.4, 30 min, 25° C.; read-out: DGAT1 Enzyme Assay IC50 (inhibition).
T1 construct: made in house; host or cells: Sf9 insect cells (baculovirus), used as a membrane preparation
T1 sequence (O75907 1-488): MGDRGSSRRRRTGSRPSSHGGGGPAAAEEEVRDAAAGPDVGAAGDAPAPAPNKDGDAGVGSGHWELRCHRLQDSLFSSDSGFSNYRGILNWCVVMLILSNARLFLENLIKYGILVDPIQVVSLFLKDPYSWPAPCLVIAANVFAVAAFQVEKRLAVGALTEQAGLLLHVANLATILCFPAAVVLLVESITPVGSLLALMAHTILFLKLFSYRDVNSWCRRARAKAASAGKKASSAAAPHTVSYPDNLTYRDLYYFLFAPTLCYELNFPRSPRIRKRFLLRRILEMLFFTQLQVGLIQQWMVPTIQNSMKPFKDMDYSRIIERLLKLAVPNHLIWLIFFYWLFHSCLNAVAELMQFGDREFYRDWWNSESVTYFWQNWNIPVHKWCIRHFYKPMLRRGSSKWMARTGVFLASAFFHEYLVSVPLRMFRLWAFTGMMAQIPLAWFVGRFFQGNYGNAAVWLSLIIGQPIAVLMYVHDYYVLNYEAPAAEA
Format: biochemical
Method: DGAT1 enzyme assays were conducted using membranes isolated from Sf9 insect cells expressing the recombinant human DGAT1 cDNA. The assays were conducted in 384-well plates with total volume of 25 μl at 25° C. In each assay, 300 ng of recombinant human DGAT1 membrane was incubated with 25 μM of 2-monooleoylglycerol and 25 μM of [^3H]-stearoyl-CoA in 100 mM potassium phosphate (pH 7.4) for 30 min with various concentrations of compounds delivered in DMSO. The assay was terminated by the addition of 30 μl of Stopping Solution [50 mM HEPES, 5 mg/mL Yttrium Oxide (YOX) Polylysine SPA beads, 3.33 mg/mL Fraction V BSA, 200 μM Mercuric chloride]. The signal was measured using LEADSEEKER^SM for 5 minutes. To calculate the degree of inhibition, the zero level of enzyme activity (blank) was defined by the above assay using Sf9 cell membrane uninfected with baculovirus and the 100% level of DGAT1 enzyme activity was defined by human DGAT1 assay with the vehicle DMSO. The IC50 values of inhibitors were determined by Excel-fit.

| Compound | IC50 |
| --- | --- |
| CC(C)[C@H](NC(=O)c1cccn2c(-c3ccc(Nc4nc5ccc(Cl)cc5s4)cc3)nnc12)C(=O)O [Example 25, (S)-2-(3-(4-(6-Chlorobenzo[d]thiazol-2-ylamino)phenyl)-[1,2,4-]triazolo[4,3-a]pyridine-8-carboxamido)-3-methylbutanoic acid] | 0.007 µM |
| CC[C@H](C)[C@H](NC(=O)c1cccn2c(-c3ccc(NC(=O)Nc4ccccc4OC(F)(F)F)cc3)nnc12)C(=O)O [Example 16] | 0.003 µM |
| CC(C)[C@H](NC(=O)c1nccn2c(-c3ccc(Nc4nc5ccc(Cl)cc5s4)cc3)nnc12)C(=O)O [Example 63, (S)-2-(3-(4-(6-Chlorobenzothiazol-2-ylamino)phenyl)-[1,2,4]triazolo[4,3-a]pyrazine-8-carboxamido)-3-methylbutanoic acid] | 0.007 µM |
| C[C@@H](NC(=O)c1cccn2c(-c3ccc(Nc4nccs4)cc3)nnc12)C(=O)O [Example 47] | 28 µM |
| O=C(Nc1ccc(-c2nnc3c(C(=O)N[C@@H](Cc4ccccc4)C(=O)O)cccn23)cc1)Nc1ccccc1OC(F)(F)F [Example 11] | 0.15 µM |
| O=C(Nc1ccc(-c2nnc3c(C(=O)N[C@H](C(=O)O)C4CCCCC4)cccn23)cc1)Nc1ccccc1OC(F)(F)F [Example 14] | 0.18 µM |
| O=C(O)CNC(=O)c1cccn2c(-c3ccc(Nc4nccs4)cc3)nnc12 [Example 53] | 23 µM |
| O=C(O)CNC(=O)c1cccn2c(-c3ccc(NC(=O)Nc4ccccc4OC(F)(F)F)cc3)nnc12 [Example 5] | 0.17 µM |
| O=C(O)CCNC(=O)c1cccn2c(-c3ccc(NC(=O)Nc4ccccc4OC(F)(F)F)cc3)nnc12 [Example 6] | 0.15 µM |
| CC[C@H](NC(=O)c1cccn2c(-c3ccc(Nc4nc5ccc(Cl)cc5s4)cc3)nnc12)C(=O)O [Example 41] | 0.005 µM |
| COC(=O)Nc1ccc(-c2nnc3c(C(=O)N4CCC[C@H]4C(=O)O)cccn23)cc1 [Example 22, (S)-1-(3-(4-(Methoxycarbonylamino)phenyl)-[1,2,4]triazolo[4,3-a]pyridine-8-carbonyl)pyrrolidine-2-carboxylic acid] | 31 µM |
| CCC(=O)Nc1ccc(-c2nnc3c(C(=O)N[C@H](C(=O)O)C(C)C)cccn23)cc1 [Example 23, (S)-3-Methyl-2-(3-(4-propionamidophenyl)-[1,2,4]triazolo[4,3-a]pyridine-8-carboxamido)butanoic acid] | 43 µM |
